Measured values from patent publication US7320878B2, “Protease assay for therapeutic drug monitoring” (Tibotec Pharmaceuticals, Ltd., priority 2001, dated 2008).

Experiments:
[1] = test system: α-acid glycoprotein (AAG); test: Binding constant (Ka) of the drug to alpha-acid glycoprotein; design: species or system human
[2] = test system: normal human serum proteins; details: 5 min, 1 μM
Experimental: To one part of serum sample two parts of MeOH were added, mixed and centrifuged at 16,100 g for 30 min. The supernatant was recovered and can be stored for at least 2 weeks at −20° C. prior to assay. 60 μl is used for the cuvette assay or 24 μl is used for the plate reader assay. Six serial dilutions 1:2 to 1:120 of the extracts, obtained from analyte samples were prepared prior to assay. Methanol extract of normal dog serum without inhibitor was used for the dilution.
For the plate reader assay, the following conditions were used: The buffer was prepared of 50 mM Sodium acetate (NaOAc), pH 4.5, 2 mM dithiothreitol (DTT), 20 mM Sodium Chloride (NaCl), 0.01% Tween 20. The substrate was present at a final concentration of 20 μM in the above buffer. The substrate used is based on a natural substrate for HIV protease. It contains a portion (P4-P4′) of the p17-p24 gag protein. […] The enzyme, wild type HIV-1 protease, was present in the above buffer (50 mM NaOAc, pH4.5, 2 mM DTT, 200 mM NaCl), 0.01% Tween 20) at a final concentration of 4-5 nM. It should be appreciated that other forms of HIV protease can be used as well, including mutant forms of the protease.
The assay is performed at room temperature (RT). […] The reaction was started by adding 88 μl buffer containing substrate and the increase of fluorescence was monitored over time (FIG. 2). […]

plasma protein = details: cited from earlier work

| Compound | Ka for AAG binding [1] | Free/total drug ratio (%), percentage of HIV protease inhibitor in sample not bound to proteins [2] [%] | plasma protein bound (plasma protein) |
| --- | --- | --- | --- |
| CC(C)(C)NC(=O)[C@@H]1CN(Cc2cccnc2)CCN1C[C@@H](O)C[C@@H](Cc1ccccc1)C(=O)N[C@H]1c2ccccc2C[C@H]1O [IDV, indinavir] | No binding | – | – |
| CC(C)CN(C[C@@H](O)[C@H](Cc1ccccc1)NC(=O)[C@H](CC(N)=O)NC(=O)c1ccc2ccccc2n1)C(=O)NC(C)(C)C [SC-52151] | 2.3 10^6 M^−1 | 10.5 | – |
| CC(C)(C)NC(=O)[C@@H]1C[C@@H]2CCCC[C@@H]2CN1C[C@@H](O)[C@H](Cc1ccccc1)NC(=O)[C@H](CC(N)=O)NC(=O)c1ccc2ccccc2n1 [saquinavir] | – | – | 90-99% |
